Assays:
Assay in all cases: relative viability (nuclei count vs DMSO), 5 days (fraction); higher = more cells survive
[1] = compound: C1COCCN1C2=NC(=NC3=C2OC4=C3C=CC=N4)C5=CC(=CC=C5)NC(=O)C6=CN=C(C=C6)N + Cc1nc(Nc2ncc(C(=O)Nc3c(C)cccc3Cl)s2)cc(N2CCN(CCO)CC2)n1 [Dasatinib] (partner 0.075 µM)
Outline: (§1)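 Relative viability is defined as nuclei in treated wells over nuclei in vehicle wells. Duplicate plates were run and medians reported. Lung cancer cell lines in 1536-well plates were dosed by pin tool one day after seeding, with one drug or with a fixed anchor-drug dose plus five library-drug doses (not always all listed) in √10 steps, and nuclei were counted after 5 days.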

SGI-1776 + AZD7762 = compound: CN1CCC(CNc2ccc3ncc(-c4cccc(OC(F)(F)F)c4)n3n2)CC1 [SGI-1776] + NC(=O)Nc1cc(-c2cccc(F)c2)sc1C(=O)N[C@H]1CCCNC1 [AZD7762] (partner 0.2 µM)
Outline: as §1

[2] = compound: C1COCCN1C2=NC(=NC3=C2OC4=C3C=CC=N4)C5=CC(=CC=C5)NC(=O)C6=CN=C(C=C6)N + CC(=O)c1c(C)c2cnc(Nc3ccc(N4CCNCC4)cn3)nc2n(C2CCCC2)c1=O [Palbociclib] (partner 0.5 µM)
Outline: as §1

SGI-1776 + OSI-027 = compound: CN1CCC(CNc2ccc3ncc(-c4cccc(OC(F)(F)F)c4)n3n2)CC1 [SGI-1776] + COc1cccc2cc(-c3nc([C@H]4CC[C@H](C(=O)O)CC4)n4ncnc(N)c34)[nH]c12 [OSI-027] (partner 0.5 µM)
Outline: as §1

Cell Line	relative viability ([1]; first compound 0.02 µM)	relative viability ([1]; first compound 0.06325 µM)	relative viability ([1]; first compound 0.2 µM)	relative viability ([1]; first compound 0.6325 µM)	relative viability ([1]; first compound 2 µM)	relative viability (SGI-1776 + AZD7762; first compound 0.08 µM)	relative viability (SGI-1776 + AZD7762; first compound 0.8 µM)	relative viability (SGI-1776 + AZD7762; first compound 2.53 µM)	relative viability (SGI-1776 + AZD7762; first compound 8 µM)	relative viability ([2]; first compound 0.02 µM)	relative viability ([2]; first compound 0.06325 µM)	relative viability ([2]; first compound 0.2 µM)	relative viability ([2]; first compound 0.6325 µM)	relative viability ([2]; first compound 2 µM)	relative viability (SGI-1776 + OSI-027; first compound 0.08 µM)	relative viability (SGI-1776 + OSI-027; first compound 0.8 µM)	relative viability (SGI-1776 + OSI-027; first compound 2.53 µM)	relative viability (SGI-1776 + OSI-027; first compound 8 µM)
201T	0.55	0.558	0.606	0.57	0.579	0.581	0.604	0.644	0.657	0.357	0.358	0.372	0.346	0.324	0.823	0.703	0.708	0.6
A-427	0.805	0.77	0.61	0.648	0.589	0.685	0.681	0.686	0.627	0.517	0.524	0.496	0.512	0.454	0.543	0.481	0.479	0.357
ABC-1	0.586	0.612	0.523	0.587	0.54	0.801	0.648	0.85	0.83	0.562	0.658	0.55	0.7	0.471	0.401	0.552	0.472	0.407
BEN	0.309	0.297	0.334	0.371	0.325	0.829	0.735	0.673	0.524	0.465	0.44	0.498	0.464	0.425	0.316	0.289	0.264	0.323
CAL-12T	0.467	0.519	0.396	0.324	0.338	0.739	0.667	0.567	0.654	0.351	0.44	0.285	0.398	0.326	0.771	0.592	0.652	0.481
COR-L23	0.505	0.604	0.451	0.472	0.327					0.262	0.314	0.3	0.307	0.229	0.781	0.87	0.74	0.582
COR-L 105	0.307	0.363	0.22	0.308	0.284					0.413	0.403	0.371	0.363	0.359	0.746	0.716	0.658	0.38
ChaGo-K-1	0.555	0.625	0.605	0.508	0.522	0.892	0.875	0.912	0.859	0.994	0.983	0.968	0.835	0.502	0.619	0.61	0.39	0.413
EKVX	0.593	0.584	0.513	0.463	0.571	0.699	0.713	0.638	0.646	0.357	0.393	0.353	0.373	0.438	0.707	0.736	0.755	0.612
EMC-BAC-2	0.334	0.378	0.317	0.356	0.294	1.12	1.16	1.09	0.928	0.54	0.545	0.501	0.498	0.456	0.355	0.371	0.363	0.319
EPLC-272H	0.295	0.359	0.267	0.309	0.219	0.188	0.224	0.364	0.252	0.313		0.313	0.37	0.329	0.32	0.249	0.306	0.274
H3255	0.358	0.362	0.35	0.295	0.315	1.05	0.899	0.939	0.728	0.308	0.308	0.306	0.308	0.305	0.65	0.643	0.651	0.555
HARA	0.32	0.265	0.216	0.23	0.221	0.345	0.306	0.292	0.218	0.207	0.242	0.246		0.263	0.681	0.638	0.64	0.412
HCC-15	0.677	0.612	0.567	0.561	0.476	1.05	1.12	1.34	1.21	0.742	0.775	0.67	0.682	0.574	0.655	0.651	0.559	0.437
HCC-44						1.07	0.969	1	0.95	0.952	0.987	0.96	1.01	1.01	0.672	0.493	0.407	0.28
HCC-78	0.406	0.449	0.456	0.345	0.403	0.665	0.726	0.579	0.538	0.48	0.484	0.476	0.427	0.378	0.407	0.418	0.385	0.398
HCC-366	0.647	0.745	0.691	0.576	0.26	0.248	0.263	0.298	0.26	0.397	0.435	0.367	0.419	0.22	0.837	0.866	1.02	0.667
HCC-827	0.282	0.294	0.414	0.233	0.308	0.25	0.26	0.241	0.146	0.392	0.537	0.491	0.538	0.34	0.804	0.843	0.793	0.602
